Structures can show the parent of a compound that is named as a salt. Where two headings read alike, the source gives them in different places. Values belong to the compound of their own block, whether it stands above or below them.
How the values were obtained:
[1] = biological target: T1, carnitine palmitoyl transferase in liver mitochondria (Rattus norvegicus, UniProt P32198); assay: Inhibition of carnitine palmitoyl transferase activity in liver mitochondria; assay type: biochemical; conditions: for inhibition at 0.05 µM / inhibition at 0.1 µM / inhibition at 0.5 µM / inhibition at 1 µM / inhibition at 2 µM / inhibition at 5 µM / inhibition at 10 µM / inhibition at 50 µM: read-out: % Inhibition ± SEM, liver; for inhibition at 0.1 µM: 0.10 μM; for inhibition at 0.5 µM: 0.50 μM
T1 construct: from tissue; host or cells: rat liver mitochondria
T1 sequence (P32198 1-773): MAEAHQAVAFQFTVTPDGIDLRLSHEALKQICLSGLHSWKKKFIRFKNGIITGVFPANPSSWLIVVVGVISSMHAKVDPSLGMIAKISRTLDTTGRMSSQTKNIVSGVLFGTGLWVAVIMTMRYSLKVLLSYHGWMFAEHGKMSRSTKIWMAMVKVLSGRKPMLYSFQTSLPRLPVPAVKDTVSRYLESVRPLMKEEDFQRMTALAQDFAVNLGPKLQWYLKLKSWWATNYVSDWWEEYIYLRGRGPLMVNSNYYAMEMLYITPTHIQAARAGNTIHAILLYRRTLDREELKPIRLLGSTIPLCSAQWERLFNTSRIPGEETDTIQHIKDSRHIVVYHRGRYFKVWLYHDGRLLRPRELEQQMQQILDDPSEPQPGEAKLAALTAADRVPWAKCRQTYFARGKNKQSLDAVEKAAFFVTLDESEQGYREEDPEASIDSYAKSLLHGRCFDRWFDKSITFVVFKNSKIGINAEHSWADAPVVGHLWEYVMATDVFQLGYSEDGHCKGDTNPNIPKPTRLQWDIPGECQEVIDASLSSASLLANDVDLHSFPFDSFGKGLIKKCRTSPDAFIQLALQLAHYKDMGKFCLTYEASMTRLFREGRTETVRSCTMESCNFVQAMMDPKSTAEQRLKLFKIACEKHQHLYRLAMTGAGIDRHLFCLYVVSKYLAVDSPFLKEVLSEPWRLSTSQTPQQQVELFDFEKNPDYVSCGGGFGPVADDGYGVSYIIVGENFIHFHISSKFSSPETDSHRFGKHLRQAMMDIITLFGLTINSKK
Protocol: (§1) The following assay measures the ability of the compounds of the invention to inhibit the activity of carnitine palmitoyl transferase in liver and heart mitochondria.
(§2) According to this procedure, the following steps are carried out:
(§3) (1) Isolation of Mitochondria
(§4) (a) liver mitochondria: 5 g of liver from a 300 g rat is minced, homogenized with 40 ml (30 ml for heart mitochondria) of 0.25M sucrose, 10 mM Tris and 1 mM EDTA, pH 7.4 and centrifuged at 600 xg for 15 minutes. The decanted supernatant is centrifuged at 7,900 xg for 15 minutes. The resultant pellet is resuspended in 20 ml total (16 ml total for the heart mitochondria) of sucrose buffer and centrifuged 7,900 xg for 15 minutes. The pellet is then resuspended in 30 ml total (11 ml for heart mitochondria) of 0.15M KCl, 5 mM Tris.Cl, pH 7.4 and this is used as the enzyme source.
(§5) To 28 3 ml glass test tubes is added 350 μl of the following mixture:
(§6) 81 mg of FFA free albumin
(§7) 1.5 ml of 0.5 mM palmitoyl CoA
(§8) Then there are added to these test tubes 50 μl of water, 50 μl of 10 mM carnitine and 0.25 μCi^3 H-carnitine, and the tubes are placed in a 30° C. water bath.
(§9) (3) Mitochondrial Suspensions
(§10) Twelve plastic incubation tubes are prepared by adding the following to the tubes:
(§11) To each of the tubes, except 1 and 3, are added 30 μl of 200 mM ATP, 20 μl of 333 mM MgCl2 and 50 μl of 1.5 mg/ml CoA. 800 μl of mitochondria from step (1) above are added to each tube, and the tubes are incubated at room temperature for 20 minutes. The tubes are centrifuged at 7,900 xg for 3 minutes and the resultant pellet is resuspended in 1 ml chilled 150 mM KCl, 5 mM TRIS, pH 7.4.
(§12) 50 μl of mitochondrial suspension from step (3) above is added to the 28 tubes from step (2) as follows: (at 15 second intervals):
(§13) The tubes are incubated for 5 minutes at 30° C. and then there is added to each tube, at 15-second intervals, 50 μl of concentrated HCl, 1.45 ml water and 1 ml of n-butanol. The tubes are mixed, chilled in ice for 20 minutes and then centrifuged for 10 minutes at 2500 rpm to clarify the layers. Thereafter, 500 μl of the upper butanol layer of each tube is pipetted into 100 μl of water and 500 μl butanol saturated water, the tubes are mixed and chilled in ice for 20 minutes and centrifuged again for 10 minutes at 2500 rpm. 200 μl of the butanol layer of each tube is pipetted into a scintillation vial to which is added 10 ml of Aquasol, and the samples are counted in a Packard Tri-Carb Scintillation Counter.
(§14) The results are used to calculated the percentage of inhibition of carnitine palmitoyl transferase by the compounds tested.
When tested in the above assay using liver mitochondria alone, other compounds of the invention give the following results.

[2] = Bachmann et al. 1984, Lee et al. 1982 and 1985; cited from earlier work
[3] = biological target: T2, carnitine palmitoyl transferase in heart mitochondria (Rattus norvegicus, UniProt Q63704); assay: Inhibition of carnitine palmitoyl transferase activity in heart mitochondria; assay type: biochemical; conditions: for inhibition at 0.1 µM: 0.10 μM; for inhibition at 0.5 µM: 0.50 μM
T2 construct: to obtain a heart mitochondria fraction; from tissue; host or cells: rat heart mitochondria
T2 sequence (Q63704 1-772): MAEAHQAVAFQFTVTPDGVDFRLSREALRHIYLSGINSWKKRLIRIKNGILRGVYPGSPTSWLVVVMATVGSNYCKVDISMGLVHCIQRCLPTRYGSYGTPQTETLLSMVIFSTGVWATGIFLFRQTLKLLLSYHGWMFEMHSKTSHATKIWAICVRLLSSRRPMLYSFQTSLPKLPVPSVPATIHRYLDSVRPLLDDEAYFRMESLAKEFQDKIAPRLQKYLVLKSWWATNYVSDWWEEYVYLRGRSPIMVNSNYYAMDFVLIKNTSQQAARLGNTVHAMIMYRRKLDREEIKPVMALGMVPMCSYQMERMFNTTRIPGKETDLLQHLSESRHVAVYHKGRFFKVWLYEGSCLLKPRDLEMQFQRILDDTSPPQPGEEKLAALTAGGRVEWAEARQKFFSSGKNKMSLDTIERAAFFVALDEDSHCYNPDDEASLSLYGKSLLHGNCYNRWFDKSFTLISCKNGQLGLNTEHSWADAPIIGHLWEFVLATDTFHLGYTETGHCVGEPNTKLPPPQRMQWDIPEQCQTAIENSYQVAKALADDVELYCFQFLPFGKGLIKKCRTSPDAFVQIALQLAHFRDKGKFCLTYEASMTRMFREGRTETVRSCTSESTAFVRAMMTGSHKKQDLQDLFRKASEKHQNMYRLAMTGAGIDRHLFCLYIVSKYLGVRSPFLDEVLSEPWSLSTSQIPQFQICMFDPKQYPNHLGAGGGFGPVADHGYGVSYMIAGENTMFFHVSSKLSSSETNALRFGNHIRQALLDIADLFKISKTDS
Protocol: as §1, §2, §3, §4
(b) heart mitochondria: four rat hearts are processed as described in step (a) above to obtain a heart mitochondria fraction.
as §5, §6, §7, §8, §9, §10, §11, §12, §13, §14

[4] = Table 2 (Example 10), liver mitochondria alone, read-out: % Inhibition of Hepatic CPTase, IC50
[5] = Example 9, second (untitled) table, liver mitochondria, read-out: Inhibition of Hepatic CPTase, IC50
[6] = Table 1, liver mitochondria, ± SEM, read-out: IC50, liver
[7] = read-out: % Inhibition ± SEM, heart
[8] = 50.0 μM, read-out: % Inhibition ± SEM, heart
[9] = at 50 μM, Example 9, second (untitled) table, read-out: % Maximal Inhibition of Cardiac CTPase at 50 μM

inhibition at 0.05 µM [1]: 5 ± 3% | inhibition at 0.1 µM [1]: 11 ± 5% | inhibition at 0.5 µM [1]: 23 ± 7% | inhibition at 1 µM [1]: 61 ± 9% | inhibition at 2 µM [1]: 78 ± 7% | inhibition at 5 µM [1]: 79 ± 8% | inhibition at 10 µM [1]: 80 ± 9% | inhibition at 50 µM [1]: 82 ± 10% | IC50 [1, 6]: 970 ± 180 nM | IC50 [1, 4]: 970 nM | inhibition at 0.05 µM [3, 7]: 6 ± 5% | inhibition at 0.1 µM [3, 7]: 17 ± 5% | inhibition at 0.5 µM [3, 7]: 18 ± 4% | inhibition at 1 µM [3, 7]: 34 ± 3% | inhibition at 2 µM [3, 7]: 35 ± 3% | inhibition at 5 µM [3, 7]: 40 ± 4% | inhibition at 10 µM [3, 7]: 50 ± 2% | inhibition at 50 µM [3, 8]: 52 ± 4%
SMILES: COC(=O)C1(C(F)CCCCOc2ccc(Cl)cc2)CO1 (single isomer, unassigned) [Example 2 (isomer A), 2-[5-(4-Chlorophenoxy)-1-fluoropentyl]-2-oxiranecarboxylic acid methyl ester]

IC50 [1, 4]: 500 nM
SMILES: O=C(O)C1(C(F)CCCCOc2ccc(Cl)cc2)CO1 (single isomer, unassigned) [Example 4, 2-[5-(4-Chlorophenoxy)-1-fluoropentyl]-2-oxiranecarboxylic acid sodium salt]

IC50 [1, 5]: 350 nM | inhibition at 50 µM [3, 9]: 26 ± 4%
SMILES: COC(=O)C1(C(F)(F)CCCCCOc2ccc(Cl)cc2)CO1 (stereo not drawn) [Example 7 (gem-difluoro compound), 2-[6-(4-Chlorophenoxy)-1,1-difluorohexyl]-2-oxiranecarboxylic acid methyl ester]

IC50 [1, 4]: 520 nM
SMILES: O=C(O)C1(C(F)CCCCCOc2ccc(Cl)cc2)CO1 (single isomer, unassigned) [Example 5, 2-[6-(4-Chlorophenoxy)-1-fluorohexyl]-2-oxiranecarboxylic acid sodium salt]

IC50 [1, 5]: 250 nM | inhibition at 50 µM [3, 9]: 24 ± 6%
SMILES: O=C(O)C1(C(F)(F)CCCCCOc2ccc(Cl)cc2)CO1 (stereo not drawn) [Example 8, 2-[6-(4-Chlorophenoxy)-1,1-difluorohexyl]-2-oxiranecarboxylic acid sodium salt]

Second part, the compound before the results:

SMILES: COC(=O)C1(C(F)CCCCCOc2ccc(Cl)cc2)CO1 (single isomer, unassigned) [3 (isomer B), 2-[6-(4-Chlorophenoxy)-1-fluorohexyl]-2-oxiranecarboxylic acid methyl ester]
IC50 [1, 4]: 1750 nM

SMILES: CCCCCCCCCCCCCCC1(C(=O)OC)CO1 (stereo not drawn) [methyl ester of 2-tetradecylglycidate]
cardiac effects from chronic administration, in words [2]: adverse cardiac effects

SMILES: CCOC(=O)C1(CCCCCCOc2ccc(Cl)cc2)CO1 (stereo not drawn) [Compound A, 2-[6-(4-chlorophenoxy)hexyl]oxirane-2-carboxylic acid ethyl ester, reference compound]
inhibition at 0.05 µM [1]: 9 ± 7% | inhibition at 0.1 µM [1]: 11 ± 6% | inhibition at 0.5 µM [1]: 60 ± 7% | inhibition at 1 µM [1]: 79 ± 2% | inhibition at 2 µM [1]: 82 ± 2% | inhibition at 5 µM [1]: 86 ± 3% | inhibition at 10 µM [1]: 83 ± 3% | inhibition at 50 µM [1]: 85 ± 2% | IC50 [1, 5]: 310 nM | IC50 [1, 6]: 330 ± 40 nM | inhibition at 0.05 µM [3, 7]: 5 ± 6% | inhibition at 0.1 µM [3, 7]: 8 ± 7% | inhibition at 0.5 µM [3, 7]: 36 ± 10% | inhibition at 1 µM [3, 7]: 38 ± 15% | inhibition at 2 µM [3, 7]: 51 ± 15% | inhibition at 5 µM [3, 7]: 68 ± 11% | inhibition at 10 µM [3, 7]: 81 ± 1% | inhibition at 50 µM [3, 8]: 84 ± 1% | IC50 ([3]; Table 1, heart mitochondria, ± SEM): 250 nM | inhibition at 50 µM [3, 9]: 85 ± 2%

SMILES: COC(=O)C1(C(F)CCCCc2ccccc2)CO1 (single isomer, unassigned) [Example 1 (isomer A), 2-(1-Fluoro-5-phenylpentyl)-2-oxiranecarboxylic acid methyl ester]
IC50 [1, 4]: 1080 nM

SMILES: COC(=O)C1(C(F)CCCCCOc2ccc(Cl)cc2)CO1 (single isomer, unassigned) [3 (isomer A), 2-[6-(4-chlorophenoxy)-1-fluorohexyl]-2-oxiranecarboxylic acid methyl ester]
IC50 [1, 4]: 850 nM
